Source: the NIST ThermoML archive (doi:10.1021/je100362p)
Values joined by “and” are separate entries in the source; they are usually repeats but may differ in a detail not shown here. Identical values can stand only once. ± gives the expanded uncertainty stated by the source.

Assays:
[1] = 101 kPa, Liquid; for speed of sound: Sing-around technique in a fixed-path interferometer
[2] = refractive index (Na D-line) (dimensionless); details: 101.33 kPa, Liquid, Standard Abbe refractometry
[3] = refractive index (Na D-line) (dimensionless); xn = mol fraction of the nth substance listed; details: 101 kPa, Liquid, Standard Abbe refractometry, x2 = 0
[4] = xn = mol fraction of the nth substance listed; details: 101 kPa, Liquid, x2 = 0; for speed of sound: Sing-around technique in a fixed-path interferometer

| SMILES | mass density ([1]; 298.15 K) [kg/m3] | speed of sound ([1]; 298.15 K) [m/s] | mass density ([1]; 303.15 K) [kg/m3] | speed of sound ([1]; 303.15 K) [m/s] | mass density ([1]; 308.15 K) [kg/m3] | speed of sound ([1]; 308.15 K) [m/s] | refractive index ([2]; 298.15 K) | refractive index ([2]; 303.15 K) | refractive index ([2]; 308.15 K) | refractive index ([3]; 298.15 K) | refractive index ([3]; 303.15 K) | refractive index ([3]; 308.15 K) | speed of sound ([4]; 298.15 K) [m/s] | mass density ([4]; 298.15 K) [kg/m3] | speed of sound ([4]; 303.15 K) [m/s] | mass density ([4]; 303.15 K) [kg/m3] | speed of sound ([4]; 308.15 K) [m/s] | mass density ([4]; 308.15 K) [kg/m3] |
| --- | --- | --- | --- | --- | --- | --- | --- | --- | --- | --- | --- | --- | --- | --- | --- | --- | --- | --- |
| Cc1ccccc1O [2-methylphenol] | 1042.32 ± 0.27 | 1504.6 ± 1.1 | 1036.94 ± 0.26 | 1487.4 ± 1.1 | 1031.55 ± 0.25 | 1470.3 ± 1 | 1.544 ± 0.0007 | 1.54099 ± 0.00078 | 1.53699 ± 0.00087 |  |  |  |  |  |  |  |  |  |
| CCCCCCCCCCO [decan-1-ol] + Cc1ccc(O)cc1 |  |  |  |  |  |  |  |  |  | 1.43456 ± 0.00054 | 1.43256 ± 0.00054 | 1.4305 ± 0.00055 | 1379.4 ± 1.1 | 826.526 ± 0.55 | 1362.3 ± 1.1 | 823.101 ± 0.56 | 1345.6 ± 1.1 | 819.671 ± 0.57 |
| Cc1ccc(O)cc1 [4-methylphenol] | 1030.14 ± 0.49 | 1486.4 ± 1.4 | 1026.28 ± 0.48 | 1470.7 ± 1.4 | 1022.38 ± 0.47 | 1455 ± 1.4 | 1.537 ± 0.00072 | 1.534 ± 0.00072 | 1.531 ± 0.00072 |  |  |  |  |  |  |  |  |  |
| COc1ccccc1 [anisole] | 989.145 ± 0.25 | 1406.9 ± 1.1 | 984.433 ± 0.26 | 1386.8 ± 1.1 | 979.712 ± 0.27 | 1366.5 ± 1.1 | 1.51495 ± 0.00041 | 1.51395 ± 0.00054 | 1.51095 ± 0.0007 |  |  |  |  |  |  |  |  |  |
| CCCCCCCCCCO [decan-1-ol] + Cc1ccccc1O |  |  |  |  |  |  |  |  |  | 1.43456 ± 0.00052 | 1.43266 ± 0.00054 | 1.4305 ± 0.00056 | 1379.4 ± 1.1 | 826.526 ± 0.55 | 1362.3 ± 1.1 | 823.101 ± 0.56 | 1345.6 ± 1.1 | 819.671 ± 0.57 |
| CCCCCCCCCCO [decan-1-ol] + Cc1cccc(O)c1 |  |  |  |  |  |  |  |  |  | 1.43456 ± 0.00054 | 1.43256 ± 0.00054 | 1.4305 ± 0.00055 | 1379.4 ± 1.1 | 826.526 ± 0.55 | 1362.3 ± 1.1 | 823.101 ± 0.56 | 1345.6 ± 1.1 | 819.671 ± 0.57 |
| CCCCCCCCCCO [decan-1-ol] + COc1ccccc1 |  |  |  |  |  |  |  |  |  | 1.43456 ± 0.00054 | 1.43256 ± 0.00054 | 1.4305 ± 0.00055 | 1379.4 ± 1.1 | 826.526 ± 0.55 | 1362.3 ± 1.1 | 823.101 ± 0.56 | 1345.6 ± 1.1 | 819.671 ± 0.57 |
| Cc1cccc(O)c1 [3-methylphenol] | 1030.05 ± 0.25 | 1480.9 ± 1 | 1026.09 ± 0.24 | 1465.2 ± 1 | 1022.12 ± 0.23 | 1449.6 ± 1 | 1.538 ± 0.0007 | 1.535 ± 0.0007 | 1.532 ± 0.0007 |  |  |  |  |  |  |  |  |  |
| CCCCCCCCCCO [decan-1-ol] | 826.526 ± 0.55 | 1379.4 ± 1.1 | 823.101 ± 0.56 | 1362.3 ± 1.1 | 819.671 ± 0.57 | 1345.6 ± 1.1 | 1.43456 ± 0.00054 | 1.43256 ± 0.00054 and 1.43266 ± 0.00054 | 1.4305 ± 0.00055 |  |  |  |  |  |  |  |  |  |
